Results reported in the NIST ThermoML archive (doi:10.1016/j.jct.2008.03.017).
± gives the expanded uncertainty stated by the source.

Conditions: Liquid; for mass density: 101.33 kPa

Compound | mass density (298.15 K) [kg/m3] | vapor or sublimation pressure (298.15 K) [kPa] | mass density (328.15 K) [kg/m3] | vapor or sublimation pressure (328.15 K) [kPa]
C1COCO1 [1,3-dioxolane] | 1058.62 ± 0.71 | 13.54 ± 0.14 | 1039.88 ± 0.64 | 49.01 ± 0.19
C1COCCO1 [1,4-dioxane] | 1027.87 ± 0.6 | 4.9 ± 0.13 | 1010.69 ± 0.53 | 19.54 ± 0.15

The remaining lines, values ahead:

mass density (298.15 K) [kg/m3] | vapor or sublimation pressure (298.15 K) [kPa] | mass density (328.15 K) [kg/m3] | vapor or sublimation pressure (328.15 K) [kPa] | Compound
873.5 | 1.255 ± 0.13 | 859.01 | 5.965 ± 0.13 | CCCCCCCl [1-chlorohexane]
881.95 ± 0.45 | 21.61 ± 0.15 | 865.36 ± 0.49 | 70.61 ± 0.22 | C1CCOC1 [tetrahydrofuran]
878.81 ± 0.81 | 9.56 ± 0.14 | 863.67 ± 0.85 | 33.95 ± 0.17 | C1CCOCC1 [tetrahydropyran]
